Laboratory results reported in patent publication US9645134B1, “Isotopically-labeled solvents and the use of same in testing e-cigarettes” (Celerion, Inc., priority 2013, dated 2017).
Read-outs that look alike come from different tables or passages of the source. One block for each compound: values may come before it.

Key:
[1] = clinical study: plasma labeled and unlabeled PG by LC-MS/MS after vaporizer use or second-hand exposure; assay type: in vivo, human
Excerpt: A clinical study protocol was generated. The objectives of this study were to measure C13-labeled PG in blood and to evaluate the extent of second-hand exposure to PG and nicotine during use of a commercially-available electronic nicotine delivery system (vaporizer).
All subjects completed screening procedures and checked in to the clinic on the morning of the Test Visit. All subjects remained in the clinic until the completion of the final study procedure later that day.
Following completion of check-in procedures, all subjects were seated in a room together approximately 30 minutes prior to the start of product administration. Subjects in the vaping group began using the vaporizers as directed by the clinic staff—one inhalation at least 3 seconds in duration every 30 seconds for a total of 30 inhalations. Each vaporizer contained a 1.8 v/v % nicotine solution in a PG vehicle. […]
The samples were kept at room temperature prior to centrifuge, and were centrifuged at 2500 RPM for 15 minutes at 4° C. within 60 minutes of collection. […] (+/− 10° C.) or below (within 90 minutes from collection) until analyzed by Celerion Bioanalytical Services. […]
Plasma PG (labeled and unlabeled) and nicotine were analyzed by LC-MS/MS using analytical methods with appropriate quality controls in accordance with FDA Good Laboratory Practice (GLP) regulations (Title 21 CFR Part 58). […]

[2] = tested on: rabbit; settings: cited from earlier work
[3] = in vivo; cited from earlier work

- blood concentration of labeled propylene glycol ([1]; non-vaping subjects (Subjects 4-6), in room with vaping subjects, FIG. 2): essentially no detectable levels
Compound: [13CH3][13CH](O)[13CH2]O (stereo not drawn) [Species A3, Propyleneglycol-^13C3]

Compound: OCC(O)CO [glycerol, propane-1,2,3-triol]
- acute oral toxicity LD50 ([2]; in vivo, po): 10,000 mg/kg

Compound: propane-1,2-diol [propylene glycol]
- blood concentration of unlabeled propylene glycol ([1]; all subjects (Subjects 1-6), meal high in PG at about 4 hours, FIG. 3): significant
- excreted by the kidneys unchanged or as the glucuronide conjugate [3]: approximately 45%
- half-life [3]: approximately 4 hours
- acute oral toxicity LD50 ([2]; oral): 18500 mg/kg
